# Measurements published in US20240350402A1, “TOPICAL DRUG TREATMENT TO PREVENT OR REDUCE CORNEAL SCARRING” (The Cleveland Clinic Foundation, priority 2021, published 2024).
# How the values were obtained:
# Type in all cases: in vivo, rabbit
# [1] = tested on: collagen type IV; assay: -9D PRK model: IHC stromal collagen type IV pixels (ImageJ); settings: losartan-treated group, one month
# Description: Twelve female 12- to 15-week-old New Zealand white rabbits weighing 2.5 to 3 kg each were included. Starting 24 hours prior to surgery and continuing 5 days after PRK, all rabbits received 60 mL children's liquid acetaminophen (Johnson & Johnson, Ft. Washington, PA, USA) per 1 L of drinking water. One eye of each rabbit was randomly selected to have −9.0 D (on myopia scale) PRK and received 2 drops of topical 1% proparacaine hydrochloride (Alcon, Fort Worth, TX, USA) prior to the surgery.
# No corticosteroids were administered in either group.
# Corneal Cryo-Fixation and Sectioning Rabbits were euthanized while under ketamine-xylazine general anesthesia with 100 mg/kg Beuthanasia (Shering-Plough, Kenilworth, NJ, USA) by intravenous injection followed by bilateral pneumothorax. The corneo-scleral rims were removed with sharp Westcott scissors (Fairfield, CT, USA) and 0.12 forceps (Storz, St Louis, MO, USA). […]
# All images were converted to 300 DPI 900 pixel width×672 pixel height images with Photoshop 22.1.1 (Adobe, San Jose, CA). The mean pixels of stromal α-SMA or stromal collagen type IV were determined in a 900-pixel wide×235-pixel high rectangle (for either α-SMA or collagen type IV quantitation) with ImageJ in three sections for each cornea using the image panels showing only the color of interest. […]
# [2] = tested on: collagen type IV; assay: Alkali burn model: IHC collagen type IV intensity in anterior and posterior stroma (ImageJ); settings: one month
# Description: Worth, TX) and a 5 mm diameter circular Whatman No. 1 filter paper (Cat #1001-6508, Fisher Scientific) wetted with 100 μl of 1N NaOH solution. Following the alkali burn injury, the cornea was irrigated profusely with BSS. Each injured cornea also received one drop of ciprofloxacin (Alcon, Ft. Worth, TX, USA) ten minutes after surgery and four times a day for one week and at least 15 minutes apart from the study medications. […] Worth TX), at least 5 minutes apart, or 4) 50 μl of BSS. Multiplex immunohistochemistry (IHC) was performed using previously described methods^8 and primary antibodies (Table 7) confirmed by western blotting and IHC to recognize rabbit antigens or isotypic control antibodies (Thermo Fisher Scientific, Waltham, MA), and secondary fluorescent tagged antibodies (Table 7). The collagen type IV antibody (Cat. #AB769, Millipore, Temecula CA) was raised against purified human and bovine collagen type IV that had been affinity purified with human and bovine collagen type IV crosslinked to agarose and cross-absorbed by the manufacturer with human and bovine collagens type I, II, III, V and VI to eliminate cross-reactivity. This collagen type IV antibody was shown previously to bind rabbit collagen IV in IHC,^8,9 and recognizes the alpha-1/alpha-2 chains but not the alpha-3 to alpha-6 chains. The keratocan antibody is raised against peptide […]-OH (SEQ ID NO:1). This marker was used to identify keratocytes in situ. […] All corneas in each group had IHC for collagen type IV. Images from each cornea were converted to uniform 300 DPI, 875×568 pixel, files. […] The staining intensity within each box was determined with the analyze histogram function and the mean of three boxes was the intensity value in the anterior or posterior stroma for that cornea.
# [3] = tested on: α-SMA-positive myofibroblasts; assay: Alkali burn model: IHC α-SMA-positive stromal area and intensity (ImageJ); settings: one month
# Description: Alkali injuries were produced in one eye of rabbits with previously published methods^10 using 1N sodium hydroxide (Sigma, St. Louis, MO) in balanced salt solution (BSS, 0.64% sodium chloride, 0.075% potassium chloride, 0.048% calcium chloride dihydrate, […] magnesium chloride hexahydrate, 0.39% sodium acetate trihydrate, 0.17% sodium citrate dihydrate, pH 7.5, Alcon, H. Worth, TX) and a 5 mm diameter circular Whatman No. 1 filter paper (Cat #1001-6508, Fisher Scientific) wetted with 100 μl of 1N NaOH solution. Following the alkali burn injury, the cornea was irrigated profusely with BSS. Each injured cornea also received one drop of ciprofloxacin (Alcon, Ft. Worth, TX, USA) ten minutes after surgery and four times a day for one week and at least 15 minutes apart from the study medications.
# Worth TX), at least 5 minutes apart, or 4) 50 μl of BSS. […]
# The area of the α-SMA-positive stroma in mm^2 and the total α-SMA opacity in pixels were quantitated using standardized images obtained with a 10× objective on a Leica DM6B upright microscope equipped with an automated stage and Leica 7000 T camera using the LAS X software (Leica Microsystems, GmbH, Wetzlar, Germany). The means of three central corneal sections were analyzed from each cornea to provide the area of α-SMA-positive stroma and the total α-SMA opacity. The area of α-SMA-positive stroma in mm^2 for each cornea was determined from full diameter and thickness central corneal section images (all converted to 300 DPI, 885 width×500 height, files with identical +50% brightness increase in Photoshop for all images) with the ImageJ 1.53a analysis software using the freehand selection tool to delineate the area(s) of α-SMA-positive staining. […] In these same sections for each cornea, the total α-SMA-positive intensity in pixels was also determined with ImageJ, similarly by using the summation if separate α-SMA-positive areas were present. […]
smiles,measurement,setting,value
CCCCc1nc(Cl)c(CO)n1Cc1ccc(-c2ccccc2-c2nn[nH]n2)cc1 [losartan],collagen type IV localization (IHC),[1],localized primarily to the epithelial basement membrane
same,COL IV staining intensity in the posterior stroma vs vehicle treatment,[2],significantly different
same,mean intensity units of collagen type IV in the anterior stroma compared to vehicle treatment,[2],significantly decreased
same,total α-SMA area vs vehicle control group,[3],trend
same,localization of α-SMA-positive myofibroblasts in the stroma,[3]; topical six times per day,confined mostly to the posterior half of the stroma
